From patent US7371539B2 (priority 2003, dated 2008)
“Also recorded” adds a separate entry of the source.

Legend:
[1] = test system: Tor-His3 reporter; assay: Western assay of reporter degradation in liquid culture after cycloheximide (in vivo); type: cell-based, S. cerevisiae; details: PS-341 200 μM; Δpdr5 strains Pre10-FPR1 and Rpn10-FPR1
Protocol: The aforementioned growth assay was a convenient tool for isolating strains to further explore DTL. […] To address this point, degradation of the reporters was directly measured. Strains Pre10-FPR1 and Rpn10-FPR1 were singly transformed with plasmids that expressed hemagglutinin (HA) epitope-tagged versions of Tor-His3 and TorS1972R-His3. The transformants were grown in liquid culture to early log phase, whereupon cycloheximide was added to halt protein translation. Each culture was then split in two and rapamycin was added to one. Samples were collected at various times and whole-cell protein extracts were generated and used for Western analysis (FIGS. 4A-4H). […] These experiments confirm that the growth deficient phenotype seen on histidine-dropout media was due to the degradation of the Tor-His3 reporter and that the 26S proteasome is necessary for this to occur.
In both assays, rapamycin was added to a final concentration of 1 μM, cycloheximide was added to a final concentration of 30 ng/ml and PS-341 was added to a final concentration of 200 μM. For liquid cultures, samples were extracted at fixed time intervals (0, 30, 60, 90 minutes) and whole cell extracts were made. 25 μg of total protein was used from each sample, resolved by SDS-PAGE and transferred to PVDF membranes. […]

[2] = test system: T1, Tor-His3 with purified 26S proteasomes from strain Rpn10-FPR1; assay: In vitro degradation assay with purified 26S proteasomes and purified reporter; type: biochemical, S. cerevisiae; details: PS-341 100 μM, rapamycin 1 μM
T1 construct: made in house; host or cells: reporter: E. coli DH5αPRO (PROTet.133 vector)
Description: Whole, functional 26S proteasomes have been previously affinity-purified for use in biochemical assays (Leggett et al. (2002) Mol. Cell 10:495). The same procedure was used to isolate proteasomes from strain Rpn10-FPR1. HA epitope-tagged versions of Tor-His3 and TorS1972R-His3 were purified from a bacterial expression system and then mixed with the proteasomes, with or without rapamycin. Samples were extracted at regular intervals and reporter degradation was monitored by Western analysis (FIG. 5A). […] Once again, proteolysis of Tor-His3 could be halted upon the addition of the proteasome inhibitor PS-341.
26S proteasomes were affinity purified from strains Pre10-FPR1 and Rpn10 FPR1 using the Rpn11-TEV-ProA tag described previously (Leggett et al. (2002) Mol. Cell 10:495). Cells were grown in YPD, harvested, resuspended in 50 mM Tris-HCl [pH 8], 1 mM EDTA and lysed by French press. Lysates was centrifuged at 15,000×g for 25 minutes, filtered and incubated with IgG resin (ICN) for 1 hr at 4° C. Resin was collected in a column, washed with 100 bed volumes of 50 mM Tris-HCl [pH 8], 50 mM NaCl, 1 mM EDTA buffer and equilibrated with TEV-protease buffer (50 mM Tris-HCl [pH 7.5], 1 mM EDTA, 1 mM DTT). […] The integrity of the 26S complexes and presence of Pre10-FPR1 and Rpn10-FPR1 tagged subunits was analyzed by Coomassie staining, SDS-PAGE and immunodetection. […]

CC(C)C[C@H](NC(=O)[C@H](Cc1ccccc1)NC(=O)c1cnccn1)B(O)O [PS-341] was tested, and the “effect on degradation of Tor-His3 in the presence of rapamycin” value [1] was “prevented Tor-His3 from degrading; also recorded: halted degradation of Tor-His3” and the “effect on proteolysis of Tor-His3 in vitro” value [2] was “halted”.
